In ChEMBL document CHEMBL1154433, “Synthesis of new substituted azetidinoyl and thiazolidinoyl-1,3,4-thiadiazino (6,5-b) indoles as promising anti-inflammatory agents” (Eur J Med Chem, 2008):

Legend:
Rattus norvegicus [1] = assay: Antiinflammatory activity in albino Charles-Foster rat assessed as inhibition of carrageenan-induced paw oedema at 50 mg/kg, po measured before 1 hr and after 3 hrs of carrageenan challenge relative to control; type: functional
Mus musculus [2] = assay: Analgesic activity in mouse assessed as protection against phenylquinone-induced writhing at 50 mg/kg, po administered 1 hr before phenylquinone challenge measured for 5 mins relative to control; type: functional
[3] = Acute toxicity in orally dosed albino mouse after 24 hrs; type: organism-based, albino Charles-Foster; settings: in vivo, po, read-out: ALD50
[4] = biological target: Prostaglandin G/H synthase 1 (Homo sapiens) (UniProt P23219); assay: Inhibition of COX1; parameters: concentration or dose not given beside the values; settings: concentration not given here
Sequence of Prostaglandin G/H synthase 1 (Homo sapiens) (P23219 whole entry): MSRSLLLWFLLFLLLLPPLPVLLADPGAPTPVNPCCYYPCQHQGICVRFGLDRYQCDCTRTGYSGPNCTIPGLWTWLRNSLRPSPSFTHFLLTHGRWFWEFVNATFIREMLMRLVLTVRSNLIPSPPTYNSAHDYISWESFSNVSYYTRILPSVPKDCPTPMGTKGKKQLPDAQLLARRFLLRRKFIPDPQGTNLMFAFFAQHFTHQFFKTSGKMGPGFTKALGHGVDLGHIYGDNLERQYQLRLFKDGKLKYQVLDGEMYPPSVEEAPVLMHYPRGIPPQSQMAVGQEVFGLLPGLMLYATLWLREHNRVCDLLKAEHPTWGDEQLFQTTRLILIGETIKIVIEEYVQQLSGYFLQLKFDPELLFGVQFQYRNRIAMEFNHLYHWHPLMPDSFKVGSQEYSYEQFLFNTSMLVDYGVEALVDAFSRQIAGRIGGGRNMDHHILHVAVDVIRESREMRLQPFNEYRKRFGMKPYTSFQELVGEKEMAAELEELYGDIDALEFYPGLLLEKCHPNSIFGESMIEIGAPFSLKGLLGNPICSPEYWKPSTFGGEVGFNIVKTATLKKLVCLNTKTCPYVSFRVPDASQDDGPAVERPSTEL

[5] = biological target: T1, Prostaglandin G/H synthase 2 (Homo sapiens) (UniProt P35354); assay: Inhibition of COX2; parameters: concentration or dose not given beside the values; settings: concentration not given here
T1 sequence (whole entry): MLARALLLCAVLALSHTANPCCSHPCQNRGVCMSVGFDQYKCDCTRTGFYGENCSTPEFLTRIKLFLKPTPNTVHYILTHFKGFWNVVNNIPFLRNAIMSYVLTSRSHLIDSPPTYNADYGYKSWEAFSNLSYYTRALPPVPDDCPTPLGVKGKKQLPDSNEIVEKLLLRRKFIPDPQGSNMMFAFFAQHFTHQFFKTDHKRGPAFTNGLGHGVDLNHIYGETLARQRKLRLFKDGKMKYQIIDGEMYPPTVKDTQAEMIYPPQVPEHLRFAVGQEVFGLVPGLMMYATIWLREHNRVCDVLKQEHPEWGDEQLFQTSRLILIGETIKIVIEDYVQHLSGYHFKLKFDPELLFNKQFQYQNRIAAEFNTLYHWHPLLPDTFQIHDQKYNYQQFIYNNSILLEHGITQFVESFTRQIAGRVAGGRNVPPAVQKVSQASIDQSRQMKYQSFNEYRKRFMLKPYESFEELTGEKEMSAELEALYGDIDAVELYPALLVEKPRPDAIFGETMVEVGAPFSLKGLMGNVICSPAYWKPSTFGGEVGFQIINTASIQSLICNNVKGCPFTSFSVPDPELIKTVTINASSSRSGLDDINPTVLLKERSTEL

Rattus norvegicus [6] = assay: Antiinflammatory activity in albino Charles-Foster rat assessed as inhibition of carrageenan-induced paw oedema at 25 mg/kg, po measured before 1 hr and after 3 hrs of carrageenan challenge relative to control; type: functional
Rattus norvegicus [7] = assay: Antiinflammatory activity in albino Charles-Foster rat assessed as inhibition of carrageenan-induced paw oedema at 100 mg/kg, po measured before 1 hr and after 3 hrs of carrageenan challenge relative to control; type: functional
Mus musculus [8] = assay: Analgesic activity in mouse assessed as protection against phenylquinone-induced writhing at 25 mg/kg, po administered 1 hr before phenylquinone challenge measured for 5 mins relative to control; type: functional
Mus musculus [9] = assay: Analgesic activity in mouse assessed as protection against phenylquinone-induced writhing at 100 mg/kg, po administered 1 hr before phenylquinone challenge measured for 5 mins relative to control; type: functional
[10] = Toxicity in 24 hrs fasted Albino rat assessed as ulcerogenic activity after 8 hrs; type: organism-based; settings: in vivo, read-out: UD50
Rattus norvegicus [11] = assay: Antiinflammatory activity in albino Charles-Foster rat assessed as inhibition of carrageenan-induced paw oedema at 5 mg/kg, po measured before 1 hr and after 3 hrs of carrageenan challenge relative to control; type: functional
Rattus norvegicus [12] = assay: Antiinflammatory activity in albino Charles-Foster rat assessed as inhibition of carrageenan-induced paw oedema at 7.5 mg/kg, po measured before 1 hr and after 3 hrs of carrageenan challenge relative to control; type: functional
Rattus norvegicus [13] = assay: Antiinflammatory activity in albino Charles-Foster rat assessed as inhibition of carrageenan-induced paw oedema at 10 mg/kg, po measured before 1 hr and after 3 hrs of carrageenan challenge relative to control; type: functional
Mus musculus [14] = assay: Analgesic activity in mouse assessed as protection against phenylquinone-induced writhing at 5 mg/kg, po administered 1 hr before phenylquinone challenge measured for 5 mins relative to controll; type: functional
Mus musculus [15] = assay: Analgesic activity in mouse assessed as protection against phenylquinone-induced writhing at 7.5 mg/kg, po administered 1 hr before phenylquinone challenge measured for 5 mins relative to controll; type: functional
Mus musculus [16] = assay: Analgesic activity in mouse assessed as protection against phenylquinone-induced writhing at 10 mg/kg, po administered 1 hr before phenylquinone challenge measured for 5 mins relative to control; type: functional

Row | SMILES | inhibition in vivo at 50 mg/kg (Rattus norvegicus [1]) [%] | Activity (Mus musculus [2]) [%] | LD50 at 24 h [3] [mg/kg] | inhibition [4] [%] | inhibition [5] [%] | further results
1 | O=C1C(Cl)C(c2ccccc2)N1c1nnc(CNc2nnc3c4ccccc4nc-3s2)s1 (stereo not given) | 30.6 | 21 | > 800 | 37 | 74.6 | 
2 | Cc1ccc(C2C(Cl)C(=O)N2c2nnc(CNc3nnc4c5ccccc5nc-4s3)s2)cc1 (stereo not given) | 32.2 | 18.76 | > 800 | 38.4 | 63.6 | 
3 | COc1ccc(/C=N/c2nnc(CNc3nnc4c5ccccc5nc-4s3)s2)cc1 | 22.4 | 15.67 | > 800 | 26.2 | 29.4 | 
4 | O=C1C(Cl)C(c2ccc(O)cc2)N1c1nnc(CNc2nnc3c4ccccc4nc-3s2)s1 (stereo not given) | 32.7 | 19.95 | > 800 | 39.3 | 71.1 | 
5 | CN(C)c1ccc(C2SCC(=O)N2c2nnc(CNc3nnc4c5ccccc5nc-4s3)s2)cc1 (stereo not given) | 28.7 | 18 | > 800 | 32.2 | 38.1 | 
6 | Cc1ccc(/C=N/c2nnc(CNc3nnc4c5ccccc5nc-4s3)s2)cc1 | 20.7 | 12.67 | > 800 | 23.1 | 25.4 | 
7 | COc1ccc(C2SCC(=O)N2c2nnc(CNc3nnc4c5ccccc5nc-4s3)s2)cc1 (stereo not given) | 28.1 | 10.76 | > 800 | 34.3 | 40.1 | 
8 | CN(C)c1ccc(/C=N/c2nnc(CNc3nnc4c5ccccc5nc-4s3)s2)cc1 | 21.4 | 14.28 | > 800 | 24.2 | 26.4 | 
9 | COc1ccccc1C1C(Cl)C(=O)N1c1nnc(CNc2nnc3c4ccccc4nc-3s2)s1 (stereo not given) | 36.2 | 35 | > 800 | 38.7 | 64.3 | 
10 | O=C1CSC(c2ccc(O)cc2)N1c1nnc(CNc2nnc3c4ccccc4nc-3s2)s1 (stereo not given) | 25.3 | 9.95 | > 800 | 34.4 | 44 | 
11 | CCCCC1C(=O)N(c2ccccc2)N(c2ccccc2)C1=O [PHENYLBUTAZONE] | 36.8 | 32.5 | > 800 |  |  | inhibition in vivo at 25 mg/kg (Rattus norvegicus [6]): 26.8%; inhibition in vivo at 100 mg/kg (Rattus norvegicus [7]): 64.7%; Activity (Mus musculus [8]): 14.26%; Activity (Mus musculus [9]): 32.5%; TD50 at 8 h [10]: 54.6 mg/kg
12 | Clc1ccc(/C=N/c2nnc(CNc3nnc4c5ccccc5nc-4s3)s2)cc1 | 26 | 16.5 | > 800 | 27.4 | 33.7 | 
13 | COc1ccc2c(c1)c(CC(=O)O)c(C)n2C(=O)c1ccc(Cl)cc1 [INDOMETHACIN] | 52.2 |  |  |  |  | inhibition in vivo at 5 mg/kg (Rattus norvegicus [11]): 52.2%; inhibition in vivo at 7.5 mg/kg (Rattus norvegicus [12]): 63.1%; inhibition in vivo at 10 mg/kg (Rattus norvegicus [13]): 93.2%; Activity (Mus musculus [14]): 41.3%; Activity (Mus musculus [15]): 59.25%; Activity (Mus musculus [16]): 64.33%
14 | C(=N\c1nnc(CNc2nnc3c4ccccc4nc-3s2)s1)/c1ccccc1 | 14.8 | 12.16 | > 800 | 22.4 | 24.2 | 
15 | COc1ccccc1/C=N/c1nnc(CNc2nnc3c4ccccc4nc-3s2)s1 | 23.2 | 22.23 | > 800 | 24.1 | 26.7 | 
16 | O=C1CSC(c2ccc(Cl)cc2)N1c1nnc(CNc2nnc3c4ccccc4nc-3s2)s1 (stereo not given) | 18.2 | 8.78 | > 800 | 36.5 | 44.1 | 
17 | O=C1C(Cl)C(c2ccccc2Cl)N1c1nnc(CNc2nnc3c4ccccc4nc-3s2)s1 (stereo not given) | 28.8 | 38 | > 800 | 69.1 | 93.3 | inhibition in vivo at 25 mg/kg (Rattus norvegicus [6]): 28.8%; inhibition in vivo at 100 mg/kg (Rattus norvegicus [7]): 66.8%; Activity (Mus musculus [8]): 19%; Activity (Mus musculus [9]): 58%; TD50 at 8 h [10]: 133 mg/kg
18 | O=C1CSC(c2ccccc2)N1c1nnc(CNc2nnc3c4ccccc4nc-3s2)s1 (stereo not given) | 19.8 | 9.7 | > 800 | 31.9 | 36.7 | 
19 | Clc1ccccc1/C=N/c1nnc(CNc2nnc3c4ccccc4nc-3s2)s1 | 26 | 18.66 | > 800 | 28.7 | 34.4 | 
20 | Cc1ccc(C2SCC(=O)N2c2nnc(CNc3nnc4c5ccccc5nc-4s3)s2)cc1 (stereo not given) | 37 | 22.08 | > 800 | 33.4 | 36.3 | 
21 | COc1ccc(C2C(Cl)C(=O)N2c2nnc(CNc3nnc4c5ccccc5nc-4s3)s2)cc1 (stereo not given) | 31.6 | 21.27 | > 800 | 39.5 | 66.3 | 
22 | COc1ccccc1C1SCC(=O)N1c1nnc(CNc2nnc3c4ccccc4nc-3s2)s1 (stereo not given) | 31.3 | 22.56 | > 800 | 33.3 | 38.5 | 
23 | CN(C)c1ccc(C2C(Cl)C(=O)N2c2nnc(CNc3nnc4c5ccccc5nc-4s3)s2)cc1 (stereo not given) | 33.6 | 22.67 | > 800 | 37.2 | 65.8 | 
24 | O=C1C(Cl)C(c2ccc(Cl)cc2)N1c1nnc(CNc2nnc3c4ccccc4nc-3s2)s1 (stereo not given) | 34.7 | 25.01 | > 800 | 40.9 | 72.1 | 
25 | O=C1CSC(c2ccccc2Cl)N1c1nnc(CNc2nnc3c4ccccc4nc-3s2)s1 (stereo not given) | 38.5 | 24.67 | > 800 | 43.1 | 45.4 | inhibition in vivo at 25 mg/kg (Rattus norvegicus [6]): 22.4%; inhibition in vivo at 100 mg/kg (Rattus norvegicus [7]): 44.5%; Activity (Mus musculus [8]): 12.32%; Activity (Mus musculus [9]): 36.36%; TD50 at 8 h [10]: 167 mg/kg
26 | Oc1ccc(/C=N/c2nnc(CNc3nnc4c5ccccc5nc-4s3)s2)cc1 | 24.3 | 16.87 | > 800 | 25.1 | 31.5 | 
